Test results reported in ChEMBL document CHEMBL6182839, “Exploration of the cytotoxic and microtubule disruption potential of novel imidazo[1,5-a]pyridine-based chalcones” (RSC Med Chem, 2025).
Calls of active or inactive are those of the source. The calls are words filed in the database; no cut-off is given here.

What was measured:
MDA-MB-231 [1] = test: Induction of apoptosis in human MDA-MB-231 cells assessed as viable cells at 10 uM incubated for 24 hrs by annexin V-FITC/PI staining based flow cytometry analysis (reference value: 98.4%); assay type: functional; settings: read-out: Activity
HepG2 = test: Cytotoxicity against human HepG2 cells assessed as inhibition of cell growth incubated for 48 hrs by MTT assay; assay type: functional, cell-based; settings: HepG2, 48 h
MDA-MB-231 [2] = test: Cytotoxicity against human MDA-MB-231 cells assessed as inhibition of cell growth incubated for 48 hrs by MTT assay; assay type: functional, cell-based; settings: MDA-MB-231, 48 h
MG-63 = test: Cytotoxicity against human MG-63 cells assessed as inhibition of cell growth incubated for 48 hrs by MTT assay; assay type: functional, cell-based; settings: MG-63, 48 h
RKO = test: Cytotoxicity against human RKO cells assessed as inhibition of cell growth incubated for 48 hrs by MTT assay; assay type: functional, cell-based
PC-3 = test: Cytotoxicity against human PC-3 cells assessed as inhibition of cell growth incubated for 48 hrs by MTT assay; assay type: functional, cell-based; settings: PC-3, 48 h
MDA-MB-231 [3] = test: Induction of apoptosis in human MDA-MB-231 cells assessed as early apoptotic cells at 10 uM incubated for 24 hrs by annexin V-FITC/PI staining based flow cytometry analysis (reference value: 1.4%); assay type: functional
MDA-MB-231 [4] = test: Induction of apoptosis in human MDA-MB-231 cells assessed as necrotic cells at 10 uM incubated for 24 hrs by annexin V-FITC/PI staining based flow cytometry analysis (reference value: 0.0%); assay type: functional
MDA-MB-231 [5] = test: Induction of apoptosis in human MDA-MB-231 cells assessed as late apoptotic cells at 10 uM incubated for 24 hrs by annexin V-FITC/PI staining based flow cytometry analysis (reference value: 0.2%); assay type: functional
MDA-MB-231 [6] = test: Induction of intracellular ROS generation in human MDA-MB-231 cells at 5 to 10 uM incubated for 24 hrs by H2DCFDA staining based flow cytometric analysis; assay type: functional, cell-based; settings: dose 5-10 µM
Mitochondrial membrane = test: Induction of mitochondrial membrane potential depolarization in human MDA-MB-231 cells at 5 to 10 uM incubated for 24 hrs by JC-1 dye based flow cytometric analysis; settings: dose 5-10 µM
MDA-MB-231 [7] = test: Induction of apoptosis in human MDA-MB-231 cells assessed as viable cells at 5 uM incubated for 24 hrs by annexin V-FITC/PI staining based flow cytometry analysis (reference value: 98.4%); assay type: functional; settings: read-out: Activity
MDA-MB-231 [8] = test: Induction of apoptosis in human MDA-MB-231 cells assessed as necrotic cells at 5 uM incubated for 24 hrs by annexin V-FITC/PI staining based flow cytometry analysis (reference value: 0.0%); assay type: functional
Tubulin (Homo sapiens) [9] = biological target: T1, Tubulin (Homo sapiens) (UniProt P68371+Q9H4B7+P0DPH7+P68366+Q13509+Q71U36+P04350+Q3ZCM7+P07437+P68363+Q9BQE3+Q6PEY2+Q13885+Q9BVA1+Q9BUF5); test: Disruption of microtubule network in human MDA-MB-231 cells assessed as decrease in beta-tubulin expression at 5 to 10 uM incubated for 24 hrs by immunofluorescence staining based confocal microscopic analysis; assay type: cell-based; settings: dose 5-10 µM
MDA-MB-231 [10] = test: Induction of apoptosis in human MDA-MB-231 cells assessed as late apoptotic cells at 5 uM incubated for 24 hrs by annexin V-FITC/PI staining based flow cytometry analysis (reference value: 0.2%); assay type: functional
[11] = Selectivity ratio of IC50 for HEK cells to IC50 for human PC-3 cells; assay type: toxicity; settings: HEK cells versus PC-3 cells, read-out: Ratio IC50
[12] = Selectivity ratio of IC50 for HEK cells to IC50 for human MDA-MB-231 cells; assay type: toxicity; settings: HEK cells versus MDA-MB-231 cells, read-out: Ratio IC50
[13] = Cytotoxicity against HEK cells assessed as inhibition of cell growth incubated for 48 hrs by MTT assay; assay type: toxicity, cell-based; settings: human
Tubulin (Homo sapiens) [14] = biological target: T1, Tubulin (Homo sapiens); test: Disruption of microtubule network in human MDA-MB-231 cells assessed as decrease in beta-tubulin expression incubated for 24 hrs by immunofluorescence staining based confocal microscopic analysis; assay type: cell-based; settings: dose 5-10 µM
[15] = Selectivity ratio of IC50 for HEK cells to IC50 for human HepG2 cells; assay type: toxicity; settings: HEK cells versus HepG2 cells, read-out: Ratio IC50
MDA-MB-231 [16] = test: Induction of apoptosis in human MDA-MB-231 cells assessed as early apoptotic cells at 5 uM incubated for 24 hrs by annexin V-FITC/PI staining based flow cytometry analysis (reference value: 1.4%); assay type: functional

Row | SMILES | IC50 (HepG2) [µM] | IC50 (MDA-MB-231 [2]) [µM] | IC50 (MG-63) [µM] | IC50 (RKO) [µM] | IC50 (PC-3) [µM] | other results
1 | COC(=O)Nc1nc2cc(C(=O)c3cccs3)ccc2[nH]1 [NOCODAZOLE] | 2.15 | 3.2 | 1.25 | 2.56 | 2.89 | viability at 10 µM (MDA-MB-231 [1]): 46%; Activity (MDA-MB-231 [3]): 5.6%; Activity (MDA-MB-231 [4]): 0%; Activity (MDA-MB-231 [5]): 48.3%; Activity (MDA-MB-231 [6]): Active; Activity (Mitochondrial membrane): Active
2 | O=C(/C=C/c1nc(-c2ccc(F)cc2)n2ccccc12)c1ccc(Cl)c(Cl)c1 | > 50 | > 50 | 10.2 | > 50 | > 50 | –
3 | COc1ccc(-c2nc(/C=C/C(=O)c3ccc(F)c(F)c3)c3ccccn23)cc1 | > 50 | > 50 | 32.6 | > 50 | > 50 | –
4 | COc1ccc(C(=O)/C=C/c2nc(-c3ccc(C(F)(F)F)cc3)n3ccccc23)cc1OC | > 50 | > 50 | > 50 | > 50 | > 50 | –
5 | COc1ccc(-c2nc(/C=C/C(=O)c3cc(OC)c(OC)c(OC)c3)c3ccccn23)cc1 | > 50 | > 50 | 21.3 | > 50 | > 50 | –
6 | O=C(/C=C/c1nc(-c2ccc(C(F)(F)F)cc2)n2ccccc12)c1ccc(F)c(F)c1 | > 50 | > 50 | > 50 | > 50 | > 50 | –
7 | COc1ccc(-c2nc(/C=C/C(=O)c3ccc(OC)c(OC)c3)c3ccccn23)cc1 | > 50 | > 50 | 20.5 | > 50 | > 50 | –
8 | O=C(/C=C/c1nc(-c2ccc(Cl)cc2)n2ccccc12)c1ccc(Cl)c(Cl)c1 | 4.57 | 3.26 | 7.89 | 7.83 | 14.9 | viability at 10 µM (MDA-MB-231 [1]): 48.6%; viability at 5 µM (MDA-MB-231 [7]): 66.5%; Activity (MDA-MB-231 [8]): 1.6%; Activity (Tubulin (Homo sapiens) [9]): Active; Activity (MDA-MB-231 [3]): 21.2%; Activity (MDA-MB-231 [4]): 0.3%; Activity (MDA-MB-231 [10]): 26.9%; selectivity ratio [11]: 4; selectivity ratio [12]: 19; IC50 at 48 h [13]: 62 µM; Activity (Tubulin (Homo sapiens) [14]): Dose-dependent-effect; Activity (MDA-MB-231 [5]): 29.9%; Activity (MDA-MB-231 [6]): Active; selectivity ratio [15]: 13; Activity (Mitochondrial membrane): Active; Activity (MDA-MB-231 [16]): 5.1%
9 | O=C(/C=C/c1nc(-c2ccccc2)n2ccccc12)c1ccc(F)c(F)c1 | > 50 | > 50 | 85.2 | > 50 | > 50 | –
10 | O=C(/C=C/c1nc(-c2ccccc2)n2ccccc12)c1ccc(Cl)c(Cl)c1 | > 50 | > 50 | 45.6 | > 50 | > 50 | –
11 | COc1ccc(C(=O)/C=C/c2nc(-c3ccc(F)cc3)n3ccccc23)cc1OC | > 50 | > 50 | > 50 | > 50 | > 50 | –
12 | COc1ccc(C(=O)/C=C/c2nc(-c3ccc(Cl)cc3)n3ccccc23)cc1OC | > 50 | > 50 | > 50 | > 50 | > 50 | –
13 | O=C(/C=C/c1nc(-c2ccc(C(F)(F)F)cc2)n2ccccc12)c1ccc(Cl)c(Cl)c1 | > 50 | > 50 | > 50 | > 50 | > 50 | –
14 | COc1ccc(-c2nc(/C=C/C(=O)c3ccc(Cl)c(Cl)c3)c3ccccn23)cc1 | > 50 | > 50 | 46.3 | > 50 | > 50 | –
15 | COc1ccc(C(=O)/C=C/c2nc(-c3ccccc3)n3ccccc23)cc1OC | > 50 | > 50 | 56.3 | > 50 | > 50 | –
16 | COc1cc(C(=O)/C=C/c2nc(-c3ccc(F)cc3)n3ccccc23)cc(OC)c1OC | > 50 | > 50 | > 50 | > 50 | > 50 | –
17 | COc1cc(C(=O)/C=C/c2nc(-c3ccc(Cl)cc3)n3ccccc23)cc(OC)c1OC | 20.8 | 4.23 | 6.23 | 18.8 | 17.9 | viability at 10 µM (MDA-MB-231 [1]): 67.2%; viability at 5 µM (MDA-MB-231 [7]): 90.6%; Activity (MDA-MB-231 [8]): 0%; Activity (Tubulin (Homo sapiens) [9]): Active; Activity (MDA-MB-231 [3]): 18.6%; Activity (MDA-MB-231 [4]): 0.3%; Activity (MDA-MB-231 [10]): 5.5%; selectivity ratio [11]: 3; selectivity ratio [12]: 11; IC50 at 48 h [13]: 50 µM; Activity (Tubulin (Homo sapiens) [14]): Dose-dependent-effect; Activity (MDA-MB-231 [5]): 13.9%; Activity (MDA-MB-231 [6]): Active; selectivity ratio [15]: 2; Activity (Mitochondrial membrane): Active; Activity (MDA-MB-231 [16]): 3.8%
18 | O=C(/C=C/c1nc(-c2ccc(Cl)cc2)n2ccccc12)c1ccc(F)c(F)c1 | > 50 | > 50 | > 50 | > 50 | > 50 | –
19 | COc1cc(C(=O)/C=C/c2nc(-c3ccccc3)n3ccccc23)cc(OC)c1OC | 13.6 | 12.3 | 12.6 | > 50 | > 50 | –
20 | O=C(/C=C/c1nc(-c2ccc(F)cc2)n2ccccc12)c1ccc(F)c(F)c1 | > 50 | > 50 | 11.6 | > 50 | > 50 | –
21 | COc1cc(C(=O)/C=C/c2nc(-c3ccc(C(F)(F)F)cc3)n3ccccc23)cc(OC)c1OC | > 50 | > 50 | > 50 | > 50 | > 50 | –
